These results are taken from US20050250819A1 (priority 2004, published 2005).

The structures appear in SMILES notation. Where only a bound is given, the exact number is not on record here.

The assay concerns Type III-dependent secretion of ExoU by P. aeruginosa PA103. Kind of assay: Tertiary assay: Type III-dependent secretion of ExoU by P. aeruginosa PA103. The assay is classed as cell-based. To be noted: Pseudomonas aeruginosa, ExoU secreted into extracellular medium. The source says: Tertiary assay: inhibition of Type III protein secretion of effectors from a Pseudomonas aeruginosa system. Type III protein secretion is used by P. aeruginosa to secrete several essential virulence determinants. One effector of the type III protein secretion system of P. aeruginosa PA103 is the virulence determinants ExoU.
The amount of Type III-dependent secretion of ExoU by P. aeruginosa PA103 can be determined in a cell-based assay by quantification of the 73.9 kDa ExoU protein secreted into the extracellular medium. Such quantitation can be achieved by growing strain PA103 in a deferrated medium in the presence of nitrilotriacetic acid (an inducer of Type III protein secretion in P. aeruginosa) and either in the presence or absence of putative inhibitors. After a prolonged growth period, the cells are sedimented and the supernatants concentrated by ammonium sulfate precipitation. The proteins in the resuspended pellets are separated by electrophoresis on SDS-polyacrylamide gels. After staining gels with Colloidal Blue™, the 73.9 kDa ExoU band is quantitated by scanning through an imager. The effects of inhibitors on the intensity of the ExoU band may be measured relative to that of untreated controls.
`O=C(N[C@@H](CSCc1ccccc1)C(=O)O)/C(=C\c1cccc(Br)c1)NC(=O)c1ccc(Oc2ccccc2)cc1` [Compound 48, (R)-3-Benzylsulfanyl-2-[3-(3-bromophenyl)-2-(4-phenoxybenzoylamino)-acryloylamino]propionic acid] registered an IC50 of 24.8 µM. `O=C(N[C@@H](CSCc1ccccc1)C(=O)O)/C(=C\c1ccc(Oc2ccc(F)cc2)cc1)NC(=O)c1ccc(C(F)(F)F)cc1` [Compound 57, (R)-3-Benzylsulfanyl-2-[3-[4-(4-fluorophenoxy)phenyl]-2-(4-trifluoromethyl-benzoylamino)acryloylamino]propionic acid] had an IC50 of 35 µM. `O=C(N[C@@H](CSCc1ccccc1)C(=O)O)/C(=C\c1ccc(Oc2ccccc2)cc1)NC(=O)c1ccc(C(F)(F)F)cc1` [Compound 17, (R)-3-Benzylsulfanyl-2-[3-(4-phenoxyphenyl)-2-(4-trifluoromethylbenzoylamino)-acryloylamino]propionic acid]: the IC50 was determined as 49 µM. The same measure for `O=C(N[C@@H](CSCc1ccccc1)C(=O)O)/C(=C\c1ccc(OCc2ccccc2)cc1)NC(=O)c1ccc(C(F)(F)F)cc1` [Compound 1, (R)-2-[3-(4-Benzyloxyphenyl)-2-(4-trifluoromethylbenzoylamino)acryloylamino]-3-benzylsulfanylpropionic acid]: 11.6 µM; for `O=C(NC(CCSCc1ccccc1)C(=O)O)/C(=C\c1cccc(C(F)(F)F)c1)NC(=O)c1ccc(-c2ccccc2)cc1` (stereo not drawn) [Compound 98]: 13 µM.

`O=C(N[C@H](COCc1ccccc1)C(=O)O)/C(=C\c1cccc(C(F)(F)F)c1)NC(=O)C1CCN(c2nccc(C(F)(F)F)n2)CC1` [Compound 77, (R)-3-Benzyloxy-2-(3-(3-trifluoromethylphenyl)-2-{[1-(4-trifluoromethylpyrimidin-2-yl)-piperidine-4-carbonyl]amino}acryloylamino)propionic acid]: inhibition was half-maximal at 60 µM (IC50). `O=C(N[C@@H](COCc1ccccc1)C(=O)O)/C(=C\c1ccc(-c2ccccc2)cc1)NC(=O)c1ccc(C(F)(F)F)cc1` [Compound 23, (S)-3-Benzyloxy-2-[3-biphenyl-4-yl-2-(4-trifluoromethylbenzoylamino)-acryloylamino]propionic acid]: half-maximal inhibition (IC50) required 29 µM. To `O=C(N[C@@H](CSCc1ccccc1)C(=O)O)/C(=C\c1cccc(OCc2ccccc2)c1)NC(=O)c1ccc(C(F)(F)F)cc1` [Compound 18, (R)-2-[3-(3-Benzyloxyphenyl)-2-(4-trifluoromethylbenzoylamino)acryloylamino]-3-benzylsulfanylpropionic acid] belongs 57 µM; to `O=C(NC(CCSCc1ccccc1)C(=O)O)/C(=C\c1ccc(-c2ccccc2)cc1)NC(=O)c1ccc(C(F)(F)F)cc1` (stereo not drawn) [Compound 122], 25 µM; to `O=C(N[C@@H](CSCc1ccccc1)C(=O)O)/C(=C\c1ccc(Cl)c(Cl)c1)NC(=O)c1ccc(-c2ccccc2)cc1` [Compound 105], 33 µM. In the case of `O=C(NC(COCc1ccccc1)C(=O)O)/C(=C\c1ccc(Cl)cc1Cl)NC(=O)c1ccc(-c2ccccc2)cc1` (stereo not drawn) [Compound 103], half-maximal inhibition (IC50) required 18 µM. `O=C(N[C@@H](CSCc1ccccc1)C(=O)O)/C(=C\c1ccc(OC(F)(F)F)cc1)NC(=O)c1ccc(I)cc1` [Compound 22, (R)-3-Benzylsulfanyl-2-[2-(4-iodobenzoylamino)-3-(4-trifluoromethoxyphenyl)-acryloylamino]propionic acid] returned an IC50 of 47 µM.

With `O=C(N[C@@H](CSCc1ccccc1)C(=O)O)/C(=C\c1ccc(Cl)c(Cl)c1)NC(=O)C1CCN(c2nccc(C(F)(F)F)n2)CC1` [Compound 74, (R)-3-Benzylsulfanyl-2-(3-(3,4-dichlorophenyl)-2-{[1-(4-trifluoromethylpyrimidin-2-yl)piperidine-4-carbonyl]amino}acryloylamino)propionic acid], the IC50 turned out to be 33.8 µM.

Consider `O=C(N[C@@H](CSCc1ccccc1)C(=O)O)/C(=C\c1ccc2ccccc2c1)NC(=O)c1ccc(C(F)(F)F)cc1` [Compound 35, (R)-3-Benzylsulfanyl-2-[3-naphthalen-2-yl-2-(4-trifluoromethylbenzoylamino)-acryloylamino]propionic acid], for which the IC50 was below 12.5 µM.

Compound `O=C(NC(Cc1ccc(F)cc1)C(=O)O)/C(=C\c1ccc(-c2ccccc2)cc1)NC(=O)c1ccc(C(F)(F)F)cc1` (stereo not drawn) [Compound 54, 2-[3-Biphenyl-4-yl-2-(4-trifluoromethylbenzoylamino)acryloylamino]-3-(4-fluoro-phenyl)propionic acid] registered an IC50 of 19 µM. To `O=C(N[C@@H](CSCc1ccccc1)C(=O)O)/C(=C\c1cccc(C(F)(F)F)c1)NC(=O)C1CCN(c2nccc(C(F)(F)F)n2)CC1` [Compound 78, (R)-3-Benzylsulfanyl-2-(3-(3-trifluoromethylphenyl)-2-{[1-(4-trifluoromethylpyrimidin-2-yl)piperidine-4-carbonyl]amino}acryloylamino)propionic acid] belongs 67.3 µM; to `O=C(N[C@@H](Cc1ccc(Cl)cc1)C(=O)O)/C(=C\c1cccc(C(F)(F)F)c1)NC(=O)c1ccc(-c2ccccc2)cc1` [Compound 38, (S)-2-[2-[(Biphenyl-4-carbonyl)amino]-3-(3-trifluoromethylphenyl)acryloylamino]-3-(4-chlorophenyl)propionic acid], 17.3 µM; to `O=C(NC(Cc1ccc(Cl)cc1)C(=O)O)/C(=C\c1ccc(-c2ccccc2)cc1)NC(=O)c1ccc(C(F)(F)F)cc1` (stereo not drawn) [Compound 55, 2-[3-Biphenyl-4-yl-2-(4-trifluoromethylbenzoylamino)acryloylamino]-3-(4-chloro-phenyl)propionic acid], 13 µM. As to `O=C(N[C@@H](CSCc1ccccc1)C(=O)O)/C(=C\c1ccc(Cl)cc1Cl)NC(=O)c1ccc(C(F)(F)F)cc1` [Compound 154], the IC50 is 26.4 µM.

Consider `O=C(N[C@H](COCc1ccccc1)C(=O)O)/C(=C\c1ccc(Cl)c(Cl)c1)NC(=O)c1ccc(OC(F)(F)F)cc1` [Compound 30, (R)-3-Benzyloxy-2-[3-(3,4-dichlorophenyl)-2-(4-trifluoromethoxybenzoylamino)-acryloylamino]propionic acid], for which inhibition was half-maximal at 54 µM (IC50). The compound `O=C(N[C@@H](CCSCc1ccccc1)C(=O)O)/C(=C\c1ccc(-c2ccccc2)cc1)NC(=O)c1ccc(C(F)(F)F)cc1` [Compound 7, (S)-4-Benzylsulfanyl-2-[3-biphenyl-4-yl-2-(4-trifluoromethylbenzoylamino)-acryloylamino]butyric acid] registered an IC50 of 31 µM. `O=C(N[C@@H](CSCc1ccccc1)C(=O)O)/C(=C\c1ccc(OC(F)(F)F)cc1)NC(=O)C1CCN(c2nccc(C(F)(F)F)n2)CC1` [Compound 84, (R)-3-Benzylsulfanyl-2-(3-(4-trifluoromethoxyphenyl)-2-{[1-(4-trifluoromethyl-pyrimidin-2-yl)piperidine-4-carbonyl]amino}acryloylamino)propionic acid] returned a half-inhibitory concentration (IC50) of 57.8 µM.

Consider `O=C(N[C@@H](CSCc1ccccc1)C(=O)O)/C(=C\c1ccc(-c2ccccc2)cc1)NC(=O)c1ccc(C(F)(F)F)cc1` [Compound 121], for which the IC50 was 25 µM. The compound `CN(C(=O)/C(=C\c1cccc(C(F)(F)F)c1)NC(=O)c1ccc(-c2ccccc2)cc1)C(COCc1ccccc1)C(=O)O` (stereo not drawn) [Compound 53, 3-Benzyloxy-2-{[2-[(biphenyl-4-carbonyl)amino]-3-(3-trifluoromethylphenyl)-acryloyl]methylamino}propionic acid] yielded an IC50 of 46 µM. To `O=C(N[C@@H](CSCc1ccccc1)C(=O)O)/C(=C\c1ccc(Oc2ccccc2)cc1)NC(=O)c1ccc(Cl)cc1` [Compound 44, (R)-3-Benzylsulfanyl-2-[2-(4-chlorobenzoylamino)-3-(4-phenoxyphenyl)-acryloylamino]propionic acid] belongs 26.5 µM. The same measure for `O=C(N[C@@H](CSCc1ccccc1)C(=O)O)/C(=C\c1cccc(Oc2ccc(Cl)cc2)c1)NC(=O)c1ccc(C(F)(F)F)cc1` [Compound 40, (R)-3-Benzylsulfanyl-2-[3-[3-(4-chlorophenoxy)phenyl]-2-(4-trifluoromethyl-benzoylamino)acryloylamino]propionic acid]: 13.1 µM; for `O=C(N[C@H](COCc1ccccc1)C(=O)O)/C(=C\c1ccc(Cl)c(Cl)c1)NC(=O)c1ccc(-c2ccccc2)cc1` [Compound 56, (R)-3-Benzyloxy-2-[2-[(biphenyl-4-carbonyl)amino]-3-(3,4-dichlorophenyl)-acryloylamino]propionic acid]: 20.2 µM; for `O=C(N[C@H](CSCc1ccccc1)C(=O)O)/C(=C\c1ccc(-c2ccccc2)cc1)NC(=O)c1ccc(C(F)(F)F)cc1` [Compound 6, (S)-3-Benzylsulfanyl-2-[3-biphenyl-4-yl-2-(4-trifluoromethylbenzoylamino)-acryloylamino]propionic acid]: 47 µM. To `O=C(N[C@@H](CSCc1ccccc1)C(=O)O)/C(=C\c1ccc(Oc2ccccc2)cc1)NC(=O)c1ccc(Br)cc1` [Compound 20, (R)-3-Benzylsulfanyl-2-[2-(4-bromobenzoylamino)-3-(4-phenoxyphenyl)-acryloylamino]propionic acid] belongs 37 µM; to `CC(C)c1ccc(/C=C(/NC(=O)c2ccc(C(F)(F)F)cc2)C(=O)N[C@@H](CSCc2ccccc2)C(=O)O)cc1` [Compound 34, (R)-3-Benzylsulfanyl-2-[3-(4-isopropylphenyl)-2-(4-trifluoromethyl-benzoylamino)acryloylamino]propionic acid], 50 µM.
